Legend:
[1] = target: T1, monoacylglycerol lipase (MAGL) (Rattus norvegicus, UniProt Q8R431); experiment: MAGL activity in rat cerebella cytosol (CRBcyt), hydrolysis of [3H] 2-OG; type: biochemical, WISTAR rats; settings: 12.5 uM compound, remaining MAGL activity
T1 construct: cerebella cytosol (CRBcyt) fractions, previously obtained from adult WISTAR rats; from tissue; host or cells: adult Wistar rat cerebella, cytosol fraction
T1 sequence (Q8R431 1-303): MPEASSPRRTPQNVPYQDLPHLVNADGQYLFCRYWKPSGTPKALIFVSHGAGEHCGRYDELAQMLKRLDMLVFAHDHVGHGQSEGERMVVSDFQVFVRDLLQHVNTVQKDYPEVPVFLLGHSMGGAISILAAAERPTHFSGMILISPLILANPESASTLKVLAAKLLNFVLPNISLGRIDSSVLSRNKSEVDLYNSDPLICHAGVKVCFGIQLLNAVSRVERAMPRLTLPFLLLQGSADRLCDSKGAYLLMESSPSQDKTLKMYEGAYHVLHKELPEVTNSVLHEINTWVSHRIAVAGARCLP
Method: (§1) FAAH inhibition was determined as described above. Inhibition of monoacylglycerol lipase (MAGL) and carboxylesterase (CE) was performed according to the protocols described below. The controls for both in vitro and in vivo were the reaction mix minus the test compounds. Therefore, a low value in Table 2 below for the test compounds indicates a strong inhibitor.
MAGL activity measurement was based on rate of hydrolysis of [^3H] 2-OG (glycerol labeled) as substrate. Briefly, cerebella cytosol (CRBcyt) fractions, previously obtained from adult WISTAR rats, were diluted to appropriate assay protein concentrations in Tris-HCl buffer (10 mM, pH 7.2) containing 1 mM EDTA, and were added to assay tubes containing test compound. Blanks contained assay buffer instead of cytosol samples were used as control. […] The final assay contained 0.125% w v^−1 fatty acid-free BSA. After the incubation phase, reactions were stopped by adding 400 μL chloroform:methanol (1/1 v v^−1), vortex mixing the tubes two times and placing them on ice. Phases were separated by centrifugation and 200 μL aliquots of the methanol/buffer phase were taken and tritium content assayed by liquid scintillation spectroscopy with quench correction.

carboxylesterase (CE) [2] = experiment: Carboxylesterase (CE) activity in rat liver microsomes (LVms), p-nitrophenyl acetate; type: biochemical; settings: 10 uM compound, read 10 min after substrate, remaining CE activity
Method: as §1
(§2) CE activity measurement is based on the formation of p-nitrophenol from p-nitrophenyl acetate. Briefly, in 96-well plates 8 μg/ml of rat or mouse liver microsomes (LVms) were incubated with 10 μM FAAH inhibitors for 15 min and then the substrate, p-nitrophenyl acetate, was added to a final concentration of 1 mM. The plate was read at 405 nm 10 min after substrate addition for the appearance of p-nitrophenol using a spectrophotometer. The carboxylesterase activity in microsome extracts without inhibitor added were set at 100% as control and the remaining CE activities after incubation with inhibitors were calculated relative to the control.

carboxylesterase (CE) [3] = experiment: Carboxylesterase (CE) activity in mouse liver microsomes (LVms), p-nitrophenyl acetate; type: biochemical; settings: 10 uM compound, read 10 min after substrate, remaining CE activity
Method: as §1, §2

FAAH [4] = target: T2, FAAH (Mus musculus, UniProt O08914); experiment: In vivo FAAH inhibition after oral dosing, remaining activity in liver homogenate (LVh, peripheral tissue); parameters: species or system NMRI mice; settings: 3 mg/kg oral, 8 h
T2 construct: A fragment of liver, left lung lobe and brain without cerebellum were removed; from tissue; host or cells: male NMRI mice; brain (without cerebellum) and liver homogenates
T2 sequence (O08914 1-579): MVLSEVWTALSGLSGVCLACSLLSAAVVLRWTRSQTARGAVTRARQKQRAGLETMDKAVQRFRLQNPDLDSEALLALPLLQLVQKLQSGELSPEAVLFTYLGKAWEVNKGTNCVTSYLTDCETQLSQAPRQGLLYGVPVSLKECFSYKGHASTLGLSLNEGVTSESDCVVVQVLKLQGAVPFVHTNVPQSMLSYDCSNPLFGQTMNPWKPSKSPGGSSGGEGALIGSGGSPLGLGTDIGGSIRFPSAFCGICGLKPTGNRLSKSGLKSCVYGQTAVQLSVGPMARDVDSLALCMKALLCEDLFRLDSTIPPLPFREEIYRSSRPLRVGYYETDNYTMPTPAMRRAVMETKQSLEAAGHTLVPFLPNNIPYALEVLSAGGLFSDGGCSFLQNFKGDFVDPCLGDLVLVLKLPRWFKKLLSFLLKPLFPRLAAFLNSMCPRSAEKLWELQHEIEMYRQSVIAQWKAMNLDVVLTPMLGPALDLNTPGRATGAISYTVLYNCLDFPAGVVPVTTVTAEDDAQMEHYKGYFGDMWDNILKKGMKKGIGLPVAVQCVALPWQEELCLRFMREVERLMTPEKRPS
Procedure, shortened: (§3)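 Male NMRI mice, fasted overnight, got 30 or 3 mg/kg compound orally (0.5% CMC suspension or water) and were compared with vehicle controls. Brain (no cerebellum) and liver homogenates were incubated with 2 μM AEA plus 5 nM 3H-AEA at 37 °C, 10 min for brain and 7 min for liver. Remaining FAAH activity is % of vehicle after blank subtraction.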

FAAH [5] = target: T2, FAAH; experiment: In vivo FAAH inhibition after oral dosing, remaining activity in brain homogenate (BRh, central nervous tissue); parameters: species or system NMRI mice; settings: 3 mg/kg oral, 8 h
Procedure, shortened: as §3

With `CN(C(=O)n1cnc(-c2ccc(S(C)(=O)=O)cc2)c1)C1CCN(Cc2ccccc2)CC1` [Compound 567, N-(1-benzylpiperidin-4-yl)-N-methyl-4-(4-(methylsulfonyl)phenyl)-1H-imidazole-1-carboxamide] the “MAGL Rat CRBcyto 12.5 uM 8 min” value [1] was 94.2 % of control, the “CE Rat LVms 10 uM 10 min” value (carboxylesterase (CE) [2]) was 97.8 % of control and the “CE Mou LVms 10 uM 10 min” value (carboxylesterase (CE) [3]) was 88.6 % of control. For the same compound, the “FAAH LVh 3 mg · kg · 8 h” value (FAAH [4]; in vivo, mouse liver, remaining enzymatic activity) was 6.3 % of control, the “In Vivo LVh 3 mg · kg · 8 h (remaining FAAH activity)” value (FAAH [4]; liver homogenate, low value = strong inhibitor) was 6.3 % of control and the “In Vivo BRh 3 mg · kg · 8 h (remaining FAAH activity)” value (FAAH [5]; brain homogenate, low value = strong inhibitor) was 87.8 % of control. For the same compound, the “FAAH BRh 3 mg · kg · 8 h” value (FAAH [5]; in vivo, mouse brain, remaining enzymatic activity) was 87.8 % of control.

Reference: patent US9353082B2, “Pharmaceutical compounds” (BIAL—PORTELA & CA, S.A., priority 2008, dated 2016)
